# Experimental data taken from the supplement of paper PMC10307832.
# How the values were obtained:
# Test in all cases: relative viability (nuclei count vs DMSO), 5 days (fraction); higher = more cells survive
# EMC-BAC-2 = test system: EMC-BAC-2
# How it was run: (§1)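 Relative viability divides the nuclei count in treated wells by that in vehicle wells. Lung cancer cell lines were seeded in 1536-well plates, dosed by pin tool the next day, and fixed and stained after 5 days in one step with final 0.05% Triton X-100, 1% formaldehyde and 1 ug/ml Hoechst. Dosing was a single drug or a fixed anchor-drug dose plus five library-drug doses (not always all listed) in √10 steps, and values are medians of duplicate plates imaged at 4×.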
# EKVX = test system: EKVX
# How it was run: as §1
# NCI-H2126 = test system: NCI-H2126
# How it was run: as §1
# NCI-H1755 = test system: NCI-H1755
# How it was run: as §1
# LCLC-103H = test system: LCLC-103H
# How it was run: as §1
# NCI-H1793 = test system: NCI-H1793
# How it was run: as §1
# LC-2-ad = test system: LC-2-ad
# How it was run: as §1
# NCI-H1651 = test system: NCI-H1651
# How it was run: as §1
# NCI-H1648 = test system: NCI-H1648
# How it was run: as §1
# NCI-H1395 = test system: NCI-H1395
# How it was run: as §1
# RERF-LC-KJ = test system: RERF-LC-KJ
# How it was run: as §1
# PC-14 = test system: PC-14
# How it was run: as §1
# CAL-12T = test system: CAL-12T
# How it was run: as §1
# H3255 = test system: H3255
# How it was run: as §1
# ABC-1 = test system: ABC-1
# How it was run: as §1
# SW 900 = test system: SW 900
# How it was run: as §1
# NCI-H596 = test system: NCI-H596
# How it was run: as §1
# NCI-H2087 = test system: NCI-H2087
# How it was run: as §1
# UMC-11 = test system: UMC-11
# How it was run: as §1
# NCI-H661 = test system: NCI-H661
# How it was run: as §1
# COR-L 105 = test system: COR-L 105
# How it was run: as §1
# NCI-H2023 = test system: NCI-H2023
# How it was run: as §1
# NCI-H2009 = test system: NCI-H2009
# How it was run: as §1
smiles,measurement,setting,value
Oc1nc(-c2ccc(C(F)(F)F)cc2)nc2c1CSCC2 [XAV939] + NC(=O)Nc1cc(-c2cccc(F)c2)sc1C(=O)N[C@H]1CCCNC1 [AZD7762] (partner 0.2 µM),relative viability,EMC-BAC-2; first compound 0.08 µM,1.1
same,relative viability,EMC-BAC-2; first compound 0.253 µM,1.04
same,relative viability,EMC-BAC-2; first compound 0.8 µM,0.95
same,relative viability,EMC-BAC-2; first compound 2.53 µM,0.878
same,relative viability,EKVX; first compound 0.08 µM,0.685
same,relative viability,EKVX; first compound 0.253 µM,0.646
same,relative viability,EKVX; first compound 0.8 µM,0.362
same,relative viability,EKVX; first compound 2.53 µM,0.56
same,relative viability,NCI-H2126; first compound 0.08 µM,1.04
same,relative viability,NCI-H2126; first compound 0.253 µM,0.912
same,relative viability,NCI-H2126; first compound 0.8 µM,0.943
same,relative viability,NCI-H2126; first compound 2.53 µM,0.882
same,relative viability,NCI-H1755; first compound 0.08 µM,0.394
same,relative viability,NCI-H1755; first compound 0.253 µM,0.501
same,relative viability,NCI-H1755; first compound 0.8 µM,0.443
same,relative viability,NCI-H1755; first compound 2.53 µM,0.458
same,relative viability,LCLC-103H; first compound 0.08 µM,0.869
same,relative viability,LCLC-103H; first compound 0.253 µM,0.719
same,relative viability,LCLC-103H; first compound 0.8 µM,0.792
same,relative viability,LCLC-103H; first compound 2.53 µM,0.68
same,relative viability,NCI-H1793; first compound 0.08 µM,0.989
same,relative viability,NCI-H1793; first compound 0.253 µM,0.307
same,relative viability,NCI-H1793; first compound 0.8 µM,0.355
same,relative viability,NCI-H1793; first compound 2.53 µM,0.312
same,relative viability,LC-2-ad; first compound 0.08 µM,0.865
same,relative viability,LC-2-ad; first compound 0.253 µM,0.711
same,relative viability,LC-2-ad; first compound 0.8 µM,0.806
same,relative viability,LC-2-ad; first compound 2.53 µM,0.724
same,relative viability,NCI-H1651; first compound 0.08 µM,0.518
same,relative viability,NCI-H1651; first compound 0.253 µM,0.429
same,relative viability,NCI-H1651; first compound 0.8 µM,0.383
same,relative viability,NCI-H1651; first compound 2.53 µM,0.389
same,relative viability,NCI-H1648; first compound 0.253 µM,0.501
same,relative viability,NCI-H1648; first compound 0.8 µM,0.699
same,relative viability,NCI-H1648; first compound 2.53 µM,0.598
same,relative viability,NCI-H1395; first compound 0.08 µM,0.389
same,relative viability,NCI-H1395; first compound 0.253 µM,0.384
same,relative viability,NCI-H1395; first compound 0.8 µM,0.377
same,relative viability,NCI-H1395; first compound 2.53 µM,0.366
same,relative viability,RERF-LC-KJ; first compound 0.08 µM,0.925
same,relative viability,RERF-LC-KJ; first compound 0.253 µM,0.711
same,relative viability,RERF-LC-KJ; first compound 0.8 µM,0.848
same,relative viability,RERF-LC-KJ; first compound 2.53 µM,0.69
same,relative viability,PC-14; first compound 0.08 µM,0.352
same,relative viability,PC-14; first compound 0.253 µM,0.333
same,relative viability,PC-14; first compound 0.8 µM,0.304
same,relative viability,PC-14; first compound 2.53 µM,0.345
same,relative viability,CAL-12T; first compound 0.08 µM,0.654
same,relative viability,CAL-12T; first compound 0.253 µM,0.595
same,relative viability,CAL-12T; first compound 0.8 µM,0.609
same,relative viability,CAL-12T; first compound 2.53 µM,0.507
same,relative viability,H3255; first compound 0.08 µM,0.858
same,relative viability,H3255; first compound 0.253 µM,0.753
same,relative viability,H3255; first compound 0.8 µM,0.773
same,relative viability,H3255; first compound 2.53 µM,0.669
same,relative viability,ABC-1; first compound 0.253 µM,0.537
same,relative viability,ABC-1; first compound 0.8 µM,0.768
same,relative viability,ABC-1; first compound 2.53 µM,0.676
same,relative viability,SW 900; first compound 0.253 µM,0.616
same,relative viability,SW 900; first compound 0.8 µM,0.599
same,relative viability,SW 900; first compound 2.53 µM,0.501
same,relative viability,NCI-H596; first compound 0.08 µM,0.918
same,relative viability,NCI-H596; first compound 0.253 µM,0.896
same,relative viability,NCI-H596; first compound 0.8 µM,1.02
same,relative viability,NCI-H596; first compound 2.53 µM,1.02
same,relative viability,NCI-H2087; first compound 0.08 µM,1.29
same,relative viability,NCI-H2087; first compound 0.253 µM,1.2
same,relative viability,NCI-H2087; first compound 0.8 µM,1.22
same,relative viability,NCI-H2087; first compound 2.53 µM,1.31
Oc1nc(-c2ccc(C(F)(F)F)cc2)nc2c1CSCC2 [XAV939] + Nc1nc2[nH]cc(CCc3ccc(C(=O)N[C@@H](CCC(=O)O)C(=O)O)cc3)c2c(=O)[nH]1 [Pemetrexed] (partner 0.2 µM),relative viability,EMC-BAC-2; first compound 0.08 µM,0.454
same,relative viability,EMC-BAC-2; first compound 0.253 µM,0.399
same,relative viability,EMC-BAC-2; first compound 0.8 µM,0.412
same,relative viability,EMC-BAC-2; first compound 2.53 µM,0.344
same,relative viability,EKVX; first compound 0.08 µM,0.443
same,relative viability,EKVX; first compound 0.253 µM,0.326
same,relative viability,EKVX; first compound 0.8 µM,0.266
same,relative viability,EKVX; first compound 2.53 µM,0.303
same,relative viability,NCI-H2126; first compound 0.08 µM,0.671
same,relative viability,NCI-H2126; first compound 0.253 µM,0.542
same,relative viability,NCI-H2126; first compound 0.8 µM,0.665
same,relative viability,NCI-H2126; first compound 2.53 µM,0.598
same,relative viability,NCI-H1755; first compound 0.08 µM,0.382
same,relative viability,NCI-H1755; first compound 0.253 µM,0.425
same,relative viability,NCI-H1755; first compound 0.8 µM,0.489
same,relative viability,NCI-H1755; first compound 2.53 µM,0.336
same,relative viability,LCLC-103H; first compound 0.08 µM,0.448
same,relative viability,LCLC-103H; first compound 0.253 µM,0.405
same,relative viability,LCLC-103H; first compound 0.8 µM,0.519
same,relative viability,LCLC-103H; first compound 2.53 µM,0.472
same,relative viability,UMC-11; first compound 0.08 µM,0.893
same,relative viability,UMC-11; first compound 0.253 µM,0.635
same,relative viability,UMC-11; first compound 0.8 µM,0.731
same,relative viability,UMC-11; first compound 2.53 µM,0.636
same,relative viability,NCI-H1793; first compound 0.08 µM,1.08
same,relative viability,NCI-H1793; first compound 0.253 µM,0.797
same,relative viability,NCI-H1793; first compound 0.8 µM,0.936
same,relative viability,NCI-H1793; first compound 2.53 µM,0.678
same,relative viability,LC-2-ad; first compound 0.08 µM,0.281
same,relative viability,LC-2-ad; first compound 0.253 µM,0.265
same,relative viability,LC-2-ad; first compound 0.8 µM,0.264
same,relative viability,LC-2-ad; first compound 2.53 µM,0.266
same,relative viability,NCI-H1651; first compound 0.08 µM,0.576
same,relative viability,NCI-H1651; first compound 0.253 µM,0.513
same,relative viability,NCI-H1651; first compound 0.8 µM,0.545
same,relative viability,NCI-H1651; first compound 2.53 µM,0.4
same,relative viability,NCI-H661; first compound 0.08 µM,0.947
same,relative viability,NCI-H661; first compound 0.253 µM,0.868
same,relative viability,NCI-H661; first compound 0.8 µM,0.914
same,relative viability,NCI-H661; first compound 2.53 µM,0.854
same,relative viability,NCI-H1648; first compound 0.253 µM,0.701
same,relative viability,NCI-H1648; first compound 0.8 µM,0.667
same,relative viability,NCI-H1648; first compound 2.53 µM,0.722
same,relative viability,NCI-H1395; first compound 0.08 µM,0.875
same,relative viability,NCI-H1395; first compound 0.253 µM,0.832
same,relative viability,NCI-H1395; first compound 0.8 µM,0.805
same,relative viability,NCI-H1395; first compound 2.53 µM,0.908
same,relative viability,RERF-LC-KJ; first compound 0.08 µM,0.493
same,relative viability,RERF-LC-KJ; first compound 0.253 µM,0.464
same,relative viability,RERF-LC-KJ; first compound 0.8 µM,0.502
same,relative viability,RERF-LC-KJ; first compound 2.53 µM,0.453
same,relative viability,PC-14; first compound 0.08 µM,0.14
same,relative viability,PC-14; first compound 0.253 µM,0.12
same,relative viability,PC-14; first compound 0.8 µM,0.123
same,relative viability,PC-14; first compound 2.53 µM,0.118
same,relative viability,COR-L 105; first compound 0.08 µM,1.09
same,relative viability,COR-L 105; first compound 0.253 µM,0.916
same,relative viability,COR-L 105; first compound 0.8 µM,1.03
same,relative viability,COR-L 105; first compound 2.53 µM,0.875
same,relative viability,NCI-H2023; first compound 0.08 µM,0.279
same,relative viability,NCI-H2023; first compound 0.253 µM,0.197
same,relative viability,NCI-H2023; first compound 0.8 µM,0.208
same,relative viability,NCI-H2023; first compound 2.53 µM,0.199
same,relative viability,NCI-H2009; first compound 0.08 µM,1.22
same,relative viability,NCI-H2009; first compound 0.253 µM,1.08
same,relative viability,NCI-H2009; first compound 0.8 µM,0.979
same,relative viability,NCI-H2009; first compound 2.53 µM,0.978
same,relative viability,CAL-12T; first compound 0.08 µM,1.2
same,relative viability,CAL-12T; first compound 0.253 µM,1.13
same,relative viability,CAL-12T; first compound 0.8 µM,1.18
same,relative viability,CAL-12T; first compound 2.53 µM,0.814
same,relative viability,H3255; first compound 0.08 µM,0.576
same,relative viability,H3255; first compound 0.253 µM,0.544
same,relative viability,H3255; first compound 0.8 µM,0.55
same,relative viability,H3255; first compound 2.53 µM,0.465
same,relative viability,SW 900; first compound 0.253 µM,0.45
same,relative viability,SW 900; first compound 0.8 µM,0.483
same,relative viability,SW 900; first compound 2.53 µM,0.42
same,relative viability,NCI-H596; first compound 0.08 µM,0.544
same,relative viability,NCI-H596; first compound 0.253 µM,0.488
same,relative viability,NCI-H596; first compound 0.8 µM,0.588
same,relative viability,NCI-H596; first compound 2.53 µM,0.435
same,relative viability,NCI-H2087; first compound 0.08 µM,0.706
same,relative viability,NCI-H2087; first compound 0.253 µM,0.636
same,relative viability,NCI-H2087; first compound 0.8 µM,0.64
same,relative viability,NCI-H2087; first compound 2.53 µM,0.552
